Measurements: ChEMBL document CHEMBL3880428, “Sulfonamide derivative having PGD2 receptor antagonistic activity” (2012)

Columns and labels:
Assay type in all cases: cell-based
[1] = system: HEK293; test: Selectivity ratio of IC50 for PGD2 receptor in human platelets to IC50 for human EP1 receptor expressed in HEK293 cells by cAMP accumulation assay
[2] = system: HEK293; test: Selectivity ratio of IC50 for PGD2 receptor in human platelets to IC50 for human EP2 receptor expressed in HEK293 cells by cAMP accumulation assay
[3] = system: HEK293; test: Selectivity ratio of IC50 for PGD2 receptor in human platelets to IC50 for human EP3 receptor expressed in HEK293 cells by cAMP accumulation assay
[4] = system: HEK293; test: Selectivity ratio of IC50 for PGD2 receptor in human platelets to IC50 for human EP4 receptor expressed in HEK293 cells by cAMP accumulation assay
[5] = system: HEK293; test: Selectivity ratio of IC50 for PGD2 receptor in human platelets to IC50 for human FP receptor expressed in HEK293 cells by cAMP accumulation assay
[6] = system: HEK293; test: Selectivity ratio of IC50 for PGD2 receptor in human platelets to IC50 for human TP receptor expressed in HEK293 cells by cAMP accumulation assay
[7] = system: HEK293; test: Selectivity ratio of IC50 for PGD2 receptor in human platelets to IC50 for human IP receptor expressed in HEK293 cells by cAMP accumulation assay

Measured: Ratio IC50

CC(C)Oc1ccc(S(=O)(=O)N2CCN(c3ccc(NC(=O)c4ccno4)c(OCC(=O)O)c3)CC2)cc1
> 20: all assays above

Cc1cnc(-c2ccc(N3CCN(S(=O)(=O)c4ccc(OC(C)C)cc4)CC3)cc2OCC(=O)O)o1
> 20: all assays above

CC(C)Oc1ccc(S(=O)(=O)N2CCN(c3ccc(Br)c(OCC(=O)O)c3)CC2)cc1
> 20: all assays above

CC(C)Oc1ccc(S(=O)(=O)N2CCN(c3ccc(C(=O)NCc4ccco4)c(OCC(=O)O)c3)CC2)cc1
> 20: all assays above

CCCNC(=O)c1ccc(N2CCN(S(=O)(=O)c3ccc(OC(C)C)cc3)CC2)cc1OCC(=O)O
> 20: all assays above

CC(C)NC(=O)Nc1ccc(N2CCN(S(=O)(=O)c3ccc(OC(C)C)cc3)CC2)cc1OCC(=O)O
> 20: all assays above

CC(C)Oc1ccc(S(=O)(=O)N2CCN(c3ccc(C(=O)NC4CC4)c(OCC(=O)O)c3)CC2)cc1
> 20: all assays above

COCC#Cc1cc(OCC(=O)O)cc(N2CCN(S(=O)(=O)c3ccc(OC(C)C)cc3)CC2)c1
> 20: all assays above

CNC(=O)c1ccc(N2CCN(S(=O)(=O)c3ccc(OC(C)C)cc3)CC2)cc1OCC(=O)O
> 20: all assays above

CC(C)Oc1ccc(S(=O)(=O)N2CCN(c3cc(F)c(F)c(OCC(=O)O)c3)CC2)cn1
> 20: all assays above

CC(C)Oc1ccc(S(=O)(=O)N2CCN(c3ccc(-c4cocn4)c(OCC(=O)O)c3)CC2)cc1
> 20: all assays above

CC(C)Oc1ccc(S(=O)(=O)N2CCC(Oc3ccc(F)cc3CCC(=O)O)CC2)cc1
> 20: all assays above

CC(C)Oc1ccc(S(=O)(=O)N2CCC(Oc3ccccc3CCC(=O)O)CC2)cc1
> 20: all assays above

Cc1ccc(N2CCN(S(=O)(=O)c3ccc(OC(C)C)cc3)CC2)cc1OCC(=O)O
> 20: all assays above

CC(C)Oc1ccc(S(=O)(=O)N2CCN(c3ccc(-c4nncs4)c(OCC(=O)O)c3)CC2)cc1
> 20: all assays above

CC(C)Oc1ccc(S(=O)(=O)N2CCN(c3ccc(C(=O)Nc4ccccc4)c(OCC(=O)O)c3)CC2)cc1
> 20: all assays above

CC(C)Oc1ccc(S(=O)(=O)N2CCN(c3ccc(-c4nnco4)c(OCC(=O)O)c3)CC2)cc1
> 20: all assays above

CC(C)Oc1ccc(S(=O)(=O)N2CCN(c3ccc(Oc4ccccc4)c(OCC(=O)O)c3)CC2)cc1
> 20: all assays above

CC(C)Oc1ccc(S(=O)(=O)N2CC=C(c3ccc(Cl)c(OCC(=O)O)c3)CC2)cc1
> 20: all assays above

CC(C)Oc1ccc(S(=O)(=O)N2CCN(c3ccc(Cl)c(OCC(=O)O)c3)CC2C)cc1 (stereo not drawn)
> 20: all assays above

CC(C)Oc1ccc(S(=O)(=O)N2CCC(Oc3ccccc3/C=C/C(=O)O)CC2)cc1
> 20: all assays above

Cc1cc(C(=O)Nc2ccc(N3CCN(S(=O)(=O)c4ccc(OC(C)C)cc4)CC3)cc2OCC(=O)O)no1
> 20: all assays above

CC(C)Sc1ccc(S(=O)(=O)N2CCN(c3ccc(Cl)c(OCC(=O)O)c3)CC2)cc1
> 20: all assays above

CC(C)Oc1ccc(S(=O)(=O)N2CCN(c3ccc(C(N)=O)c(OCC(=O)O)c3)CC2)cc1
> 20: all assays above

CC(C)Oc1ccc(S(=O)(=O)N2CCN(c3cccc(OCC(=O)O)n3)CC2)cc1
> 20: all assays above

CC(C)Oc1ccc(S(=O)(=O)N2CCN(c3cc(OCC(=O)O)ccc3Cl)CC2)cc1
> 20: all assays above

CC(C)Oc1ccc(S(=O)(=O)N2CCN(c3cc(OCC(=O)O)cc(-c4ccoc4)c3)CC2)cc1
> 20: all assays above

CC(C)Oc1ccc(S(=O)(=O)N2CCN(c3ccc(NC(=O)c4ccccn4)c(OCC(=O)O)c3)CC2)cc1
> 20: all assays above

CC(C)Oc1ccc(S(=O)(=O)N2CCN(c3ccc4ncn(CC(=O)O)c4c3)CC2)cc1
> 20: all assays above

COC(=O)Nc1ccc(N2CCN(S(=O)(=O)c3ccc(OC(C)C)cc3)CC2)cc1OCC(=O)O
> 20: all assays above

COc1cccc(OC2CCN(S(=O)(=O)c3ccc(OC(C)C)cc3)CC2)c1/C=C/C(=O)O
> 20: all assays above

CC(C)Oc1ccc(S(=O)(=O)N2CCN(c3cc(OCC(=O)O)cc(-c4cccs4)c3)CC2)cc1
> 20: all assays above

CC(C)Oc1ccc(S(=O)(=O)N2CCN(c3ccc(Cl)c(/C=C/C(=O)O)c3)CC2)cc1
> 20: all assays above

CC(C)Oc1ccc(S(=O)(=O)N2CCC(Oc3ccc(Cl)cc3CCC(=O)O)CC2)cc1
> 20: all assays above
